# From PMC5325082 (Molecular Pharmacology, 2017)
# How the values were obtained:
# Assay in all cases: ACh-evoked currents, two-electrode voltage clamp in Xenopus laevis oocytes
# Type in all cases: cell-based
# [1] = target: T1, chicken W55T double-mutant α9α10 receptors (Gallus gallus, UniProt Q9I8C7+Q9PTS8, W83T/W84T); conditions: 1 or 30 mM ACh, n = 10
# T1 construct: expressed in transfected cells; host or cells: Xenopus laevis oocytes (cRNA injection)
# Description: (§1) cDNAs encoding Gallus gallus (chick) or Rattus norvegicus (rat) α9 and α10 nAChR subunits were subcloned into a modified pGEMHE vector for expression studies in Xenopus laevis oocytes. Capped cRNAs were in vitro transcribed from linearized plasmid DNA templates using RiboMAX Large Scale RNA Production System (Promega, Madison, WI). Mutant subunits were produced using Quick Change XL II kit (Stratagene, La Jolla, CA). Amino acid sequences of rat and chicken α9, α10, and Torpedo α1 subunits were aligned using ClustalW (EMBL-EBI, Wellcome Genome Campus, Hinxton, Cambridgeshire). Residues were numbered according to the corresponding Torpedo α1 subunit mature protein ([Karlin, 2002]).
# (§2) The maintenance of Xenopus laevis and the preparation and cRNA injection of stage V and VI oocytes have been described in detail elsewhere ([Verbitsky et al., 2000]). Typically, oocytes were injected with 50 nl of RNase-free water containing 0.01–1.0 ng of cRNA (at a 1:1 molar ratio when pairwise combined) and maintained in Barth’s solution at 18°C. Electrophysiological recordings were performed 2–6 days after cRNA injection under two-electrode voltage clamp with an Oocyte Clamp OC-725B or C amplifier (Warner Instruments Corp., Hamden, CT). Recordings were filtered at a corner frequency of 10 Hz using a 900BT Tunable Active Filter (Frequency Devices Inc., Ottawa, IL). Data acquisition was performed using a Patch Panel PP-50 LAB/1 interface (Warner Instruments Corp.) at a rate of 10 points per second. Both voltage and current electrodes were filled with 3 M KCl and had resistances of ∼1 MΩ. Data were analyzed using Clampfit from the pClamp 6.1 software (Molecular Devices, Sunnyvale, CA). During electrophysiological recordings, oocytes were continuously superfused (∼15 ml/min) with normal frog saline composed of: 115 mM NaCl, 2.5 mM KCl, 1.8 mM CaCl2, and 10 mM HEPES buffer, pH 7.2. ACh was added to the perfusion solution for application. Unless otherwise indicated, the membrane potential was clamped to −70 mV. To minimize activation of the endogenous Ca^2+ sensitive chloride current ([Elgoyhen et al., 2001]), all experiments were performed in oocytes incubated with the Ca^2+ chelator 1,2-bis(2-aminophenoxy)ethane-N,N,N′,N′-tetraacetic acid (acetoxymethyl ester) (100 µM) for 3 hours before electrophysiological recordings.
# (§3) Concentration-response curves were normalized to the maximal agonist response in each oocyte. The mean and S.E.M. values of the responses are represented. Agonist concentration-response curves were iteratively fitted, using Prism 5 software (GraphPad Software Inc., La Jolla, CA), with the equation: I/Imax = A^nH/(A^nH + EC50^nH), where I is the peak inward current evoked by the agonist at concentration A; Imax is the current evoked by the concentration of the agonist eliciting a maximal response; EC50 is the concentration of the agonist inducing a half-maximal current response; and nH is the Hill coefficient. Data were analyzed using Clampfit from the pClamp 6.1 software.
# [2] = target: chicken α9W55Tα10 receptor (Gallus gallus, UniProt Q9I8C7+Q9PTS8, W84T)
# Description: as §1, §2, §3
# [3] = target: T2, rat W55T double-mutant α9α10 receptors (Rattus norvegicus, UniProt P43144+Q9JLB5, W81T/W82T); conditions: 1 or 30 mM ACh, n = 15
# T2 construct: expressed in transfected cells; host or cells: Xenopus laevis oocytes (cRNA injection)
# Description: as §1, §2, §3
# [4] = target: T3, rat double-mutant α9Y190Tα10Y190T receptors (Rattus norvegicus, UniProt P43144+Q9JLB5, Y216T/Y217T); conditions: 1 or 30 mM ACh, n = 8
# T3 construct: expressed in transfected cells; host or cells: Xenopus laevis oocytes (cRNA injection)
# Description: as §1, §2, §3
structure (smiles),measurement,setting,value
"CC(=O)OCC[N+](C)(C)C [ACh, acetylcholine]",Currents evoked by ACh,[1],failed to evoke currents
same,EC50,[2],357 ± 75 µM
same,Imax (maximal evoked current),[2],59 ± 8 nA
same,Currents evoked by ACh,[3],failed to evoke currents
same,Response to ACh,[4],failed to respond
